Results taken from patent US6469010B1, “Medicament for the alleviation or treatment of symptom derived from the ischemic disease and compound useful thereof” (Suntory Limited, priority 1995, dated 2002).

Assays:
DBA/2N mice = assay: Audiogenic seizure suppressing action; assay type: in vivo; settings: Mus musculus, ip, 20 min; compound 10 mg/kg, i.p.; audio stimulus after 20 minutes; suppression of average seizure score; read-out: Antiseizure action (suppression rate %)
Protocol: Audiogenic Seizure Suppressing Action
The audiogenic seizure suppressing action of the compounds was evaluated by the method of Sarro et al. [G. B. De Sarro et al.; Br. J. Pharmacol., 93, 247 (1988)]. That is, DBA/2N mice (male, 3 weeks) were administered with the compound dissolved in 10% 2-hydroxypropyl-β-cyclodextrin intraperitoneally. After 20 minutes, a supersonic washer was used to apply audio stimulus of at least 90 dB for one minute. The wild running (WR), clonic seizures (clonus), tonic seizures (tonus), and respiratory arrest (RA) were evaluated. The seizure suppressing action was evaluated from the rate or suppression of the average value of the seizure score found from 0=no response, 1=WR, 2=clonus, 3=tonus, and 4=RA.

Na+ channel = assay: Veratridine-induced sodium channel activity inhibiting action (membrane potential of synaptosomes, Rhodamine 6G); assay type: biochemical, Wistar rats; settings: 0.1 μM of compound; rat brain synaptosomes, veratridine-induced depolarization
Protocol: Veratridine-induced Sodium Channel Activity Inhibiting Action
The membrane potential of the synaptosomes prepared from the brain membrane of Wistar rats (male, 10 to 12 weeks old) was measured by the method of Aiuchi et al. [T. Aiuchi et al: Biochimi. Biophys. Acta.

Structure (SMILES)	inhibition in vivo at 10 mg/kg (DBA/2N mice)	Antiveratridine action (inhibiting rate %) (Na+ channel)
C1=C(c2ccc(Oc3ccccc3)cc2)CCN(C/C=C/c2ccccc2)C1 [Compound 18, (E)-4-(4-phenoxyphenyl)-1-(3-phenyl-2-propenyl)-1,2,3,6-tetrahydropyridine]	27.9%	16%
COc1cc(/C=C/CN2CCC(c3ccc(Oc4ccccc4)cc3)CC2)ccc1O [Compound 19, (E)-1-[3-(4-hydroxy-3-methoxyphenyl)-2-propenyl]-4-(4-phenoxyphenyl)piperidine]	53.6%	26.1%
c1ccc(CCCN2CCC(c3ccc(Oc4ccccc4)cc3)CC2)cc1 [Compound 22, 4-(4-phenoxyphenyl)-1-(3-phenylpropyl)piperidine]	85.7%	
COc1cc(/C=C/CN2CC=C(c3ccc(Oc4ccccc4)cc3)CC2)ccc1O [Compound 24, (E)-1-[3-(4-hydroxy-3-methoxyphenyl)-2-propenyl]-4-(4-phenoxyphenyl)-1,2,3,6-tetrahydropyridine]	49.1%	
Fc1ccc(/C=C/CN2CCC(c3ccc(Oc4ccccc4)cc3)CC2)cc1 [Compound 25, (E)-1-[3-(4-fluorophenyl)-2-propenyl]-4-(4-phenoxyphenyl)piperidine]	72%	
Fc1ccc(OCCN2CCC(c3ccc(Oc4ccccc4)cc3)CC2)cc1 [Compound 27, 1-[2-(4-fluorophenyl)oxyethyl]-4-(4-phenoxyphenyl)piperidine]	34%	
Fc1ccc(OCCCCN2CCC(c3ccc(Oc4ccccc4)cc3)CC2)cc1 [Compound 28, 1-[4-(4-fluorophenyl)-oxybutyl]-4-(4-phenoxyphenyl)piperidine]	56.9%	38%
COc1ccc(CN2CCC(c3ccc(Oc4ccccc4)cc3)CC2)c(OC)c1OC [Compound 29, 4-(4-phenoxyphenyl)-1-[(2,3,4-trimethoxyphenyl)methyl]piperidine]	66.2%	9.9%
Fc1ccc(Cc2ccc(C3=CCN(C/C=C/c4ccccc4)CC3)cc2)cc1 [Compound 31, (E)-4-[4-(4-fluorophenyl)-methylphenyl]-1-(3-phenyl-2-propenyl)-1,2,3,6-tetrahydropyridine]	48%	
Fc1ccc(Cc2ccccc2C2=CCN(C/C=C/c3ccccc3)CC2)cc1 [Compound 34, (E)-4-[2-(4-fluorophenyl)methylphenyl]-1-(3-phenyl-2-propenyl)-1,2,3,6-tetrahydropyridine]	34%	
Fc1ccc(OCCCCN2CCN(c3ccc(Oc4ccccc4)cc3)CC2)cc1 [Compound 41, 4-[4-(4-fluorophenyl)-oxybutyl]-1-(4-phenoxyphenyl)piperazine]	42.7%	20.8%
C(=C\c1ccccc1)/CN1CCN(c2ccccc2Oc2ccccc2)CC1 [Compound 42, (E)-1-(2-phenoxyphenyl)-4-(3-phenyl-2-propenyl)piperazine]	60%	
COc1ccc(CN2CCN(c3ccc(Oc4ccccc4)cc3)CC2)c(OC)c1OC [Compound 46, 1-(4-phenoxyphenyl)-4-[(2,3,4-trimethoxyphenyl)methyl]piperazine]	27.9%	11.7%
COc1ccc(/C=C/CN2CCN(c3ccc(Cc4ccc(F)cc4)cc3)CC2)c(OC)c1OC [Compound 48, (E)-1-[4-(4-fluorophenyl)-methylphenyl]-1-[3-(2,3,4-trimethoxyphenyl)-2-propenyl]-piperazine]	53.6%	20.5%
C(=C\c1ccccc1)/CN1CCN(c2ccccc2Cc2ccccc2)CC1 [Compound 51, (E)-1-(2-benzylphenyl)-4-(3-phenyl-2-propenyl)piperazine]	71.4%	
c1ccc(Cc2ccccc2N2CCN(CC3CC3c3ccccc3)CC2)cc1 (stereo not drawn) [Compound 52, (E)-1-(2-benzylphenyl)-4-[trans-(2-phenyl)cyclopropylmethyl]piperazine]	20%	
Fc1ccc(Cc2ccc(N3CCN(CC4CC4c4ccccc4)CC3)cc2)cc1 (stereo not drawn) [Compound 55, (E)-1-[4-(4-fluorophenyl)-methylphenyl]-4-[trans-(2-phenyl)cyclopropylmethyl]-piperazine]	62%	

Structure (SMILES)	inhibition in vivo at 10 mg/kg (DBA/2N mice)	Antiveratridine action (inhibiting rate %) (Na+ channel)
COc1ccc(CN2CCN(c3ccc(Cc4ccc(F)cc4)cc3)CC2)c(OC)c1OC [Compound 56, 1-[4-(4-fluorophenyl)-methylphenyl]-4-[(2,3,4-trimethoxyphenyl)methyl]piperazine]	50%	
Fc1ccc(Cc2ccc(N3CCN(CCCCOc4ccc(F)cc4)CC3)cc2)cc1 [Compound 57, 4-[4-(4-fluorophenyl)-oxybutyl]-1-[4-(4-fluorophenyl)methylphenyl]pinerazine]		25%
O=C(CCCN1CCN(c2ccc(Cc3ccc(F)cc3)cc2)CC1)c1ccc(F)cc1 [Compound 58, 1-[4-(4-fluorophenyl)methylphenyl]-4-[4-((4-fluorophenyl)-4-oxo)butyl]-piperazine]	66%	33.9%
Fc1ccc(Cc2ccc(C3CCN(CC4(c5ccccc5)CC4)CC3)cc2)cc1 [Compound 62, 4-[4-(4-fluorophenyl)-methylphenyl]-1-(1-phenyl-1-cyclopropane)methyl-piperidine]	44%	23.9%
O=C(CN1CCC(c2ccc(Cc3ccc(F)cc3)cc2)CC1)c1ccccc1 [Compound 63, 4-[4-(4-fluorophenyl)methylphenyl]-1-(2-phenyl-2-oxo)ethylpiperidine]	76%	31.1%
O=C(CN1CCC(c2ccc(Oc3ccccc3)cc2)CC1)c1ccccc1 [Compound 64, 4-(4-phenoxyphenyl)-1-(2-phenyl-2-oxo)ethylpiperidine]	94%	34.5%
COc1ccc(C(=O)CN2CCC(c3ccc(Oc4ccccc4)cc3)CC2)cc1 [Compound 66, 1-[2-(4-methoxyphenyl)-2-oxo]ethyl-4-(4-phenoxyphenyl)piperidine]	39.2%	19.6%
O=C(CN1CCC(c2ccc(Oc3ccccc3)cc2)CC1)c1ccc(F)cc1 [Compound 67, 1-[2-(4-fluorophenyl)-2-oxo]ethyl-4-(4-phenoxyphenyl)piperidine]	37%	15%
O=C(CN1CCC(c2ccc(Oc3ccccc3)cc2)CC1)c1ccc(Cl)cc1 [Compound 68, 1-[2-(4-chlorophenyl)-2-oxo]ethyl-4-(4-phenoxyphenyl]piperidine]		38.9%
CC(C(=O)c1ccccc1)N1CCC(c2ccc(Oc3ccccc3)cc2)CC1 (centres unmarked) [Compound 69, 1-(1-benzoylethyl)-4-(4-phenoxyphenyl)piperidine]	64.7%	11.2%
COc1ccc(Cc2ccc(C3CCN(CC(=O)c4ccccc4)CC3)cc2)cc1 [Compound 70, 4-[4-(4-methoxyphenyl)methylphenyl]-1-(2-phenyl-2-oxo)ethylpiperidine]	73.9%	
O=C1c2ccccc2CC1N1CCC(c2ccc(Oc3ccccc3)cc2)CC1 (centres unmarked) [Compound 71, 1-(1-oxoindan-2-yl)-4-(4-phenoxy)phenylpiperidine]	32%	
ON=C(CN1CCC(c2ccc(Oc3ccccc3)cc2)CC1)c1ccccc1 [Compound 74, 4-(4-phenoxyphenyl)-1-(2-phenyl-2-hydroxyimino)ethylpiperidine]	44.4%	14.6%
OC(CN1CCC(c2ccc(Oc3ccccc3)cc2)CC1)c1ccccc1 (centres unmarked) [Compound 77, 1-(2-hydroxy-2-phenyl)-ethyl-4-(4-phenoxyphenyl)piperidine]	85.7%	31.1%
OC(CN1CCC(c2ccc(Oc3ccccc3)cc2)CC1)c1ccc(Cl)cc1 (centres unmarked) [Compound 78, 1-[2-(4-chlorophenyl)-2-hydroxy]ethyl-4-(4-phenoxyphenyl)piperidine]	66%	44.4%
OC(COc1ccccc1)CN1CCC(c2ccc(Cc3ccc(F)cc3)cc2)CC1 (centres unmarked) [Compound 81, 4-[4-(4-fluorophenyl)methylphenyl]-1-(2-hydroxy-3-phenoxy)propylpiperidine]	61%	24.1%
O=C(CN1CCN(c2ccc(Cc3ccc(F)cc3)cc2)CC1)c1ccccc1 [Compound 82, 1-[4-(4-fluorophenyl)methylphenyl]-4-(2-phenyl-2-oxo)ethylpiperazine]	71.9%	16.9%
